# Results: ChEMBL document CHEMBL1933060, “Discovery of novel 5-alkynyl-4-anilinopyrimidines as potent, orally active dual inhibitors of EGFR and Her-2 tyrosine kinases” (Bioorg Med Chem Lett, 2012)
# Calls of active or inactive are those of the source. The calls are words filed in the database; no cut-off is given here.
# How the values were obtained:
# NCI-N87 [1] = experiment: Antiproliferative activity against human NCI-N87 cells after 3 days by methylene blue staining; format: functional, cell-based; settings: NCI-N87, 72 h
# BT-474 = experiment: Antiproliferative activity against human BT474 cells after 3 days by methylene blue staining; format: functional, cell-based; settings: BT-474, 72 h
# [2] = target: Epidermal growth factor receptor (Homo sapiens, UniProt P00533); experiment: Inhibition of EGFR by time-resolved fluorescence assay
# [3] = target: Receptor tyrosine-protein kinase erbB-2 (Homo sapiens, UniProt P04626); experiment: Inhibition of Her-2 by time-resolved fluorescence assay
# NCI-N87 [4] = experiment: Antitumor activity against human NCI-N87 cells xenografted in athymic mouse assessed as tumor growth inhibition at 20 mg/kg, po QD for 14 days measured after 19 days; format: functional, organism-based; set-up: dose 20 mg/kg
# NCI-N87 [5] = experiment: Antitumor activity against human NCI-N87 cells xenografted in athymic mouse assessed as tumor volume at 20 mg/kg, po QD for 14 days measured after 19 days relative to control; format: functional
# NCI-N87 [6] = experiment: Antitumor activity against human NCI-N87 cells xenografted in athymic mouse assessed as tumor volume at 80 mg/kg, po QD for 14 days measured after 19 days relative to control; format: functional
# [7] = target: Tyrosine-protein kinase Lck (Homo sapiens, UniProt P06239); experiment: Inhibition of Lck
# [8] = Total clearance in iv dosed rat; format: ADME, organism-based; settings: in vivo
# Aurora kinase A = target: T1, Aurora kinase A (Homo sapiens, UniProt O14965); experiment: Inhibition of Aurora A
# T1 sequence (O14965 whole entry): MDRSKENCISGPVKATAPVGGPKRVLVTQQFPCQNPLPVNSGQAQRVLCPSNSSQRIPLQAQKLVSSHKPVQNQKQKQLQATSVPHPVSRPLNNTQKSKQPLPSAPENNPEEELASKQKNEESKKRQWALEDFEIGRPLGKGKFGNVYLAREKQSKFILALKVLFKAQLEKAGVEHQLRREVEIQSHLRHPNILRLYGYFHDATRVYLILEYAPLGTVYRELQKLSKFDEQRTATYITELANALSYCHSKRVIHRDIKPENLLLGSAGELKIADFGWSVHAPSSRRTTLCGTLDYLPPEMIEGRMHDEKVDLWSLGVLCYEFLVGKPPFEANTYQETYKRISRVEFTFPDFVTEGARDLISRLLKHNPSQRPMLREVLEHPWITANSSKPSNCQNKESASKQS
# [9] = AUC in po dosed rat; format: ADME, organism-based; settings: plasma
# NCI-N87 [10] = experiment: Antitumor activity against human NCI-N87 cells xenografted in athymic mouse assessed as tumor growth inhibition at 80 mg/kg, po QD for 14 days measured after 19 days; format: functional, organism-based; set-up: dose 80 mg/kg
# [11] = Aqueous solubility of the compound at pH 7.4; format: physicochemical
# [12] = target: Platelet-derived growth factor receptor beta (Homo sapiens, UniProt P09619); experiment: Inhibition of PDGFRbeta
# [13] = Oral bioavailability in rat; format: ADME, organism-based; settings: in vivo
# [14] = Metabolic stability of the compound in human liver microsomes assessed as compound remaining after 30 mins; format: ADME, Microsome; settings: read-out: Stability
# [15] = target: Vascular endothelial growth factor receptor 2 (Homo sapiens, UniProt P35968); experiment: Inhibition of VEGFR2
# [16] = Metabolic stability of the compound in rat liver microsomes assessed as compound remaining after 30 mins; format: ADME, Microsome; settings: read-out: Stability
# Insulin receptor = Insulin receptor (Homo sapiens, UniProt P06213); experiment: Inhibition of INSR
# Sequence of Insulin receptor (P06213 28-758 limits assumed): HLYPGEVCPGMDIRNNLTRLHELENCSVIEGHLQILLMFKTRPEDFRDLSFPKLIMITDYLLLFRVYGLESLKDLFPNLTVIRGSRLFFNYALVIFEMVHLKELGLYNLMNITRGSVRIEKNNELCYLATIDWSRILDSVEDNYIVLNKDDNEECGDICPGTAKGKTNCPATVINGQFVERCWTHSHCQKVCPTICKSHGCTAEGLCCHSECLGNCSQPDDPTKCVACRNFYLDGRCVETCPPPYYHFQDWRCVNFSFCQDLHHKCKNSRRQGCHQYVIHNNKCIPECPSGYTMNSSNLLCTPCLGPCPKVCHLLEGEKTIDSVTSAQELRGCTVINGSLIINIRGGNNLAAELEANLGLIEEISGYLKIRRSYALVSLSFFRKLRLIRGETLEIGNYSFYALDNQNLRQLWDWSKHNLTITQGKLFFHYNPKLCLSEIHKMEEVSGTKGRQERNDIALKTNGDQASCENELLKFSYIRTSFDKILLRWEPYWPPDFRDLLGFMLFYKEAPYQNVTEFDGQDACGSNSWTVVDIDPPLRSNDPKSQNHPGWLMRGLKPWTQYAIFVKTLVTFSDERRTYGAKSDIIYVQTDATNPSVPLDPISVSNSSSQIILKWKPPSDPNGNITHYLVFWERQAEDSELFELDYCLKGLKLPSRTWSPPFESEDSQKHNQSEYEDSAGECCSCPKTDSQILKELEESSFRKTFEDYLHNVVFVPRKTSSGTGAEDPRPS
# Sequence of Insulin receptor (P06213 763-1382 limits assumed): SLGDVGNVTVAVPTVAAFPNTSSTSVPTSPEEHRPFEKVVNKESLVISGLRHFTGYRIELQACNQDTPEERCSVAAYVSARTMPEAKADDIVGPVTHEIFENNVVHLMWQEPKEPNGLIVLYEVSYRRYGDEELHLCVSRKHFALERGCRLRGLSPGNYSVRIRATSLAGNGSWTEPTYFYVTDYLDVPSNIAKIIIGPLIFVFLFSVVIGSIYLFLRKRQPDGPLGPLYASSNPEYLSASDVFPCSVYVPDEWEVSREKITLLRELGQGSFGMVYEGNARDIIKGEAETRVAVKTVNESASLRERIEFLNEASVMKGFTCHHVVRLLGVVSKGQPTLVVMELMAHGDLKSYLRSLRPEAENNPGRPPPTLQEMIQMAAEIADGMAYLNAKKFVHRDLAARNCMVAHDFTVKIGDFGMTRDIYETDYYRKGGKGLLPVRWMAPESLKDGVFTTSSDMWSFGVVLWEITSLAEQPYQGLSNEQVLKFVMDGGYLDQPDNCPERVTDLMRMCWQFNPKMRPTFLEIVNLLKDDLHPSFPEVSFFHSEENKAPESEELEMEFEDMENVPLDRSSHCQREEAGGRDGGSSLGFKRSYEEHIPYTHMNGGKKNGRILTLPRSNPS
# Sequence of Epidermal growth factor receptor (P00533 whole entry): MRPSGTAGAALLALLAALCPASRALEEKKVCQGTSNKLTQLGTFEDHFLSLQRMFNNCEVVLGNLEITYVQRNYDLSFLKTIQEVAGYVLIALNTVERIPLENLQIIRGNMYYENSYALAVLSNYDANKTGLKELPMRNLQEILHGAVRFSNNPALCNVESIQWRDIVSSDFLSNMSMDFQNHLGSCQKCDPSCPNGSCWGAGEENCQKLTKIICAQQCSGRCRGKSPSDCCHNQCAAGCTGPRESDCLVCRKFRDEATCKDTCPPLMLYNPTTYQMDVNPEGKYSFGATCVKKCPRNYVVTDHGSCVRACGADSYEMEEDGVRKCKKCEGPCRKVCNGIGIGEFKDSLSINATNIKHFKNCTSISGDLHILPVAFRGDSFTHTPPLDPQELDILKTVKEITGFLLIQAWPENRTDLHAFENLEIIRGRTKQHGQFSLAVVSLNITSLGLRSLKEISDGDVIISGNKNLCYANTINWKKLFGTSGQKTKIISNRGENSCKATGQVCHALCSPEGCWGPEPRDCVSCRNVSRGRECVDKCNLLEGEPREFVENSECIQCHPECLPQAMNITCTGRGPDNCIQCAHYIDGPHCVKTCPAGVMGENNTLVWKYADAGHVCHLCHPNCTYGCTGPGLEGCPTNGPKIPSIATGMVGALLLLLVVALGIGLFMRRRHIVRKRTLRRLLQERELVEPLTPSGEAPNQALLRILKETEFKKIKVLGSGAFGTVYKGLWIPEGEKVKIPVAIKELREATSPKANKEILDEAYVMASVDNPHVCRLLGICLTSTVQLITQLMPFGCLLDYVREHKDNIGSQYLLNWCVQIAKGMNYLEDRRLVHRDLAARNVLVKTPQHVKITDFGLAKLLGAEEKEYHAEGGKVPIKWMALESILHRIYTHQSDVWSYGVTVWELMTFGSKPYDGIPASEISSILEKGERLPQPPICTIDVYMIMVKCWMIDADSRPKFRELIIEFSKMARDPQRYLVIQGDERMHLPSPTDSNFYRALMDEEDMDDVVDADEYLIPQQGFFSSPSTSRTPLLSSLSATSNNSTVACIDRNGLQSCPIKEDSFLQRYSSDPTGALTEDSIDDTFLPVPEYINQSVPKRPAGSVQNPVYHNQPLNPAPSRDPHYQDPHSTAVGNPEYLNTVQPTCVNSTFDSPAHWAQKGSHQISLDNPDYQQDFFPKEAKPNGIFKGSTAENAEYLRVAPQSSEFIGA
# Sequence of Receptor tyrosine-protein kinase erbB-2 (P04626 whole entry): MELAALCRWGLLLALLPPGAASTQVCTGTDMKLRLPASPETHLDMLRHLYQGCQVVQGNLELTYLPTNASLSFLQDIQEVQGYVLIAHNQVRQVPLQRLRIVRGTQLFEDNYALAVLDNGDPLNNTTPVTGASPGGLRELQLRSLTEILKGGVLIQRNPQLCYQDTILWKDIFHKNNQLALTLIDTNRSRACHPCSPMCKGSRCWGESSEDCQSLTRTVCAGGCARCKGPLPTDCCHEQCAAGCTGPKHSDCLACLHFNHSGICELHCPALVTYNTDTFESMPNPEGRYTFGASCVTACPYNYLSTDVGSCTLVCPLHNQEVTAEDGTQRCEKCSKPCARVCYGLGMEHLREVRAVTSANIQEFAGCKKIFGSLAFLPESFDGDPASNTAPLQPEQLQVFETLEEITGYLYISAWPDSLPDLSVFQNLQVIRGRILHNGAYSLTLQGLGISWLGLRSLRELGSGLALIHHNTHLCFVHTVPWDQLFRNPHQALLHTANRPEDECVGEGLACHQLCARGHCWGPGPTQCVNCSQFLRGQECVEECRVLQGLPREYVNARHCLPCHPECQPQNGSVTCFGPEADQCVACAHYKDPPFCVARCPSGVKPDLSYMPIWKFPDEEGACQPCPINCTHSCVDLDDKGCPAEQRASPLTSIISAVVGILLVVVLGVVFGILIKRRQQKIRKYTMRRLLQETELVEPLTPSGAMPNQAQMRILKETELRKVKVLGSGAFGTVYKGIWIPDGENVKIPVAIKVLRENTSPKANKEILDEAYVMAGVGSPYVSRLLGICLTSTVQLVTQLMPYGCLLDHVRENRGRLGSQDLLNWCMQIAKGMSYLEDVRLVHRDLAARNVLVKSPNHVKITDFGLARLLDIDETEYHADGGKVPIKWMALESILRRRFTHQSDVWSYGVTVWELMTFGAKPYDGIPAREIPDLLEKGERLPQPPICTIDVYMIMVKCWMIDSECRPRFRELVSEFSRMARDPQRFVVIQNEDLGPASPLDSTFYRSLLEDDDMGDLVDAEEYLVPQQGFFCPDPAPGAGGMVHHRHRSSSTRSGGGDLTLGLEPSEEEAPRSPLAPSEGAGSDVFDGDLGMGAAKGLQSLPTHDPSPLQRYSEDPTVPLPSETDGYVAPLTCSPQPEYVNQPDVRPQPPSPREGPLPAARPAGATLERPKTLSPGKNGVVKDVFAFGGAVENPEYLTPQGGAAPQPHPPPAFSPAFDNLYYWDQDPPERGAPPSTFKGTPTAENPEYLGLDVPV
# Sequence of Platelet-derived growth factor receptor beta (P09619 whole entry): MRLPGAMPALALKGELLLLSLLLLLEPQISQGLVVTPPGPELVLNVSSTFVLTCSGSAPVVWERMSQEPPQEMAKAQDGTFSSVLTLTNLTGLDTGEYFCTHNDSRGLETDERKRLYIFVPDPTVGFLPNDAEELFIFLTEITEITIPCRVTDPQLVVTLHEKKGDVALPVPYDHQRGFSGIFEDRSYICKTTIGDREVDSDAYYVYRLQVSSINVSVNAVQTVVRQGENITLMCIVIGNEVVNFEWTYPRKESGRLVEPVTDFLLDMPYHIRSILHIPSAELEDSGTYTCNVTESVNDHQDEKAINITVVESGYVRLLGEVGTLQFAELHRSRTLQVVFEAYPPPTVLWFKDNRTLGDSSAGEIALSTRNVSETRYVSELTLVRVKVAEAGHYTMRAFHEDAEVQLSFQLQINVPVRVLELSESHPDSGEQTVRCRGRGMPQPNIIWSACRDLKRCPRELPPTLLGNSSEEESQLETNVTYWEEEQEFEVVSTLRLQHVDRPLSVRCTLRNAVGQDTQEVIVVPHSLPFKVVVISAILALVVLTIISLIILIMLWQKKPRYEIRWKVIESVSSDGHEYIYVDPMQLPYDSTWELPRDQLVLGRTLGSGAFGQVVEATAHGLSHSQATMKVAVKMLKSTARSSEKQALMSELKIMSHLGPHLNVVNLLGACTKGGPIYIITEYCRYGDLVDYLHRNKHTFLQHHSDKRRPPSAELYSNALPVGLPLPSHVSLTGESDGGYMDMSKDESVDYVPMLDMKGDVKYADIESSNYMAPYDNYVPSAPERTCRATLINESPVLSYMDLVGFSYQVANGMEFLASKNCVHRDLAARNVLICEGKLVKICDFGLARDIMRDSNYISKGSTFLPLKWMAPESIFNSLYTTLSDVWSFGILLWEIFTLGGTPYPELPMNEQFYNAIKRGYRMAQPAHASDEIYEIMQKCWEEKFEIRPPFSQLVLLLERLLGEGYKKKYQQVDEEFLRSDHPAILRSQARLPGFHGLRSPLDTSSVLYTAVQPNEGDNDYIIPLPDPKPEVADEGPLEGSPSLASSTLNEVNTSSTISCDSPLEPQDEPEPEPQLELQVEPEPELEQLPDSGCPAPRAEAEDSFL
SMILES,IC50 (NCI-N87 [1]) [nM],IC50 (BT-474) [nM],IC50 [2] [nM],IC50 [3] [nM],other results
CS(=O)(=O)CCNCc1ccc(-c2ccc3ncnc(Nc4ccc(OCc5cccc(F)c5)c(Cl)c4)c3c2)o1 [LAPATINIB],90,100,–,–,–
Cc1ncnc(Nc2ccc(OCc3cccc(F)c3)c(Cl)c2)c1C#Cc1ccc(CN2CCCC2)s1,690,410,30,180,–
CS(=O)(=O)CCNCc1ccc(-c2ccc3ncnc(Nc4ccc(OCc5cccc(F)c5)c(Cl)c4)c3c2)o1,–,–,–,–,growth inhibition (GI) (NCI-N87 [4]): Active
Cc1ncnc(Nc2ccc(OCc3cccc(F)c3)c(Cl)c2)c1/C=C/c1ccc(CNC2CC2)cc1,–,–,98,86,–
Cc1ncnc(Nc2ccc(OCc3cccc(F)c3)c(Cl)c2)c1/C=C/c1ccc(CNCCS(C)(=O)=O)cc1,780,640,–,120,–
Cc1ncnc(Nc2ccc(OCc3cccc(F)c3)c(Cl)c2)c1C#Cc1ccc(CN(C)C)cc1,–,–,7,41,–
Cc1ncnc(Nc2ccc(OCc3cccc(F)c3)c(Cl)c2)c1/C=C/c1ccc(CNC(C)C)cc1,–,–,24,30,–
Cc1ncnc(Nc2ccc(OCc3cccc(F)c3)c(Cl)c2)c1C#Cc1ccc(CNC(C)C)cc1,240,170,3,18,–
Cc1ncnc(Nc2ccc(OCc3cccc(F)c3)c(Cl)c2)c1C#Cc1ccccc1,–,–,650,750,–
CS(=O)(=O)CCNCc1ccc(-c2ccc3ncnc(Nc4ccc(OCc5cccc(F)c5)c(Cl)c4)c3c2)o1.Cc1ccc(S(=O)(=O)O)cc1.Cc1ccc(S(=O)(=O)O)cc1.O [LAPATINIB DITOSYLATE],–,–,–,–,T/C (NCI-N87 [5]): 0.57; T/C (NCI-N87 [6]): 0.37
Cc1ncnc(Nc2ccc(OCc3cccc(F)c3)c(Cl)c2)c1C#Cc1cccc(CN(C)C)c1,–,–,55,73,–
Cc1ncnc(Nc2ccc(OCc3cccc(F)c3)c(Cl)c2)c1C#Cc1ccc(CN2CCCC2)cc1,–,–,9,41,–
Cc1ncnc(Nc2ccc(OCc3cccc(F)c3)c(Cl)c2)c1C#CCOc1ccc(CNC(C)C)cc1,–,–,86,130,–
Cc1ncnc(Nc2ccc(OCc3cccc(F)c3)c(Cl)c2)c1C#Cc1ncc(CN2CCCC2)s1,–,–,74,110,–
Cc1ncnc(Nc2ccc(OCc3cccc(F)c3)c(Cl)c2)c1C#Cc1ccc(CN2CCCC2)o1,1360,810,79,140,–
Cc1ncnc(Nc2ccc(OCc3cccc(F)c3)c(Cl)c2)c1C#Cc1ccc(CNCCS(C)(=O)=O)cc1,–,–,22,220,–
Cc1ncnc(Nc2ccc(OCc3cccc(F)c3)c(Cl)c2)c1C#Cc1ccc(CN2CCCC2)c(F)c1,60,50,190,62,IC50 [7]: > 100000 nM; T/C (NCI-N87 [5]): 0.56; clearance [8]: 18 mL/min/kg; IC50 (Aurora kinase A): > 100000 nM; AUC [9]: 361 ng·h/mL; growth inhibition (GI) (NCI-N87 [10]): Active; solubility [11]: > 50 µM; IC50 [12]: > 100000 nM; bioavailability [13]: 35%; remaining at 0.5 h [14]: 24%; IC50 [15]: > 100000 nM; T/C (NCI-N87 [6]): 0.54; remaining at 0.5 h [16]: 63%; IC50 (Insulin receptor): > 100000 nM; growth inhibition (GI) (NCI-N87 [4]): Active
